In PMC8123395, “Aggregation and Its Influence on the Bioactivities of a Novel Antimicrobial Peptide, Temporin-PF, and Its Analogues” (International Journal of Molecular Sciences, 2021):
No end group written: not given here.

How the values were obtained:
[1] = tested on: Pseudomonas aeruginosa (ATCC 27853); assay type: cell-based; conditions: ATCC 27853, pH 7.4
Procedure: (§1) The minimum inhibitory concentration (MIC) and minimum bactericidal concentration (MBC) of peptides against the selected microorganisms were determined using the broth-dilution method, as described in the previous study. […] were used in the assay: Gram-positive bacteria Staphylococcus aureus (NCTC 10788), Enterococcus faecalis (NCTC 12697), and methicillin-resistant S. aureus (MRSA) (NCTC 12493); Gram-negative bacteria Escherichia coli (NCTC 10418), Pseudomonas aeruginosa (ATCC 27853), and Klebsiella pneumoniae (ATCC 43816). All the strains were cultured in Mueller Hinton Broth (MHB), pH 7.4 (Oxiod, Basingstoke, UK). Each peptide was tested at the final concentration from 128 to 1 µM in two-fold dilution. Norfloxacin was applied as the positive control.

[2] = tested on: Staphylococcus aureus (NCTC 10788); assay type: cell-based; conditions: NCTC 10788, pH 7.4
Procedure: as §1

[3] = tested on: Klebsiella pneumoniae (ATCC 43816); assay type: cell-based; conditions: ATCC 43816, pH 7.4
Procedure: as §1

[4] = tested on: Escherichia coli (NCTC 10418); assay type: cell-based; conditions: NCTC 10418, pH 7.4
Procedure: as §1

[5] = tested on: methicillin-resistant S. aureus (MRSA) (NCTC 12493); assay type: cell-based; conditions: NCTC 12493, pH 7.4
Procedure: as §1

[6] = tested on: Enterococcus faecalis (NCTC 12697); assay type: cell-based; conditions: NCTC 12697, pH 7.4
Procedure: as §1

[7] = RP-HPLC retention order of mixed peptides (overall hydrophobicity); assay type: physicochemical; conditions: peptides mixed in equal ratio and subjected to RP-HPLC; Supplementary Figure S4
Procedure: All peptides were chemically synthesized and purified by RP-HPLC. They were further mixed with an equal ratio and subjected to RP-HPLC. […] Subsequently, all peptides (1 mg/mL) were dissolved in a series of widely used culture media (Figure 2).
N-terminal Phe of temporin was believed to participate in the packaging of “head-tail” oligomerization. […] Furthermore, Trp/D-Trp substitution carried out on des-Phe1 TPF enhanced the peptide aggregation. […] It may be related to the decrease of the helical content; however, it could also be caused by the change of aggregation effects. Previous studies have shown that AMPs with strong antimicrobial activity are present as monomers in an aqueous solution and aggregate on the membrane to disrupt the bacterial cell membrane. […] It has been proposed that some aggregation effects of AMPs could limit the interaction of the peptide with its target, thereby reducing the antibacterial efficacy. In the previous study, the zipper-like motif is associated with the bioactivities as well as the assembly in the LPS micelles, which was considered to arise from hydrophobic interactions mainly. However, the overall hydrophobicity of Trp/D-Trp substituted analogs is less than that of des-Phe1 TPF, as estimated by RP-HPLC analysis. We hypothesize that the enhanced assembly seen for Trp/D-Trp substituted analogs might be related to the increased content of aromatic residues, because it could promote the strength of π stacking or cation-π type interaction. However, the true relation has not been fully clarified so far, and the capability of aromatic moieties to promote aggregation could also be affected by the hydrophobicity, position, and the neighboring side chains in their three-dimensional conformation.

[8] = Circular dichroism, helix content by BeStSel; assay type: physicochemical; conditions: CD, room temperature, BeStSel analysis
Procedure: Figure 8 CD spectra of TPF and the analogs (50 μM) prepared in 10 mM NH4AC, 50% TFE/10 mM NH4AC, 3 mM DPPG/DPPE (88:12) SUVs, and 3 mM DPPC SUVs. The spectra were averaged over three consecutive scans, and the solvent CD signal was subtracted.
The determination of the secondary structure of peptides was conducted using a JASCO J-815 CD Spectropolarimeter (JASCO Inc., Tokyo, Japan) as described in the previous study. Then, 50 μM of each peptide sample was prepared in the aqueous 10 mM ammonium acetate (NH4Ac; Sigma-Aldrich, Gillingham, UK) buffer, 50% (v/v) 2,2,2-trifluoroethanol (TFE; Sigma-Aldrich, Gillingham, UK), and 3 mM DPPG:DPPE (88:12) and DPPC small unilamellar liposomes/vesicles (SUVs) that were used to mimic the bacterial and mammalian erythrocyte cell membranes, respectively. The liposome was hydrated in deionized water and then sonicated for 15 min with an interval 30 s in an ice bath for generating SUVs. Samples were loaded in a 1-mm thickness quartz cuvette and analyzed at room temperature with the following parameters: scan range of 190–250 nm, scanning speed of […], 1 nm bandwidth, and 0.5 nm data pitch. The spectra were obtained by averaging data from three scans. The CD spectra were analyzed by BeStSel (http://bestsel.elte.hu/index.php, accessed on 16 May 2020) for the determination of secondary structure content.

[9] = Observation of aggregation: turbidity (absorbance at 600 nm) in media and salt solutions; assay type: physicochemical; conditions: peptide 1 mg/mL; 0.25, 0.5 and 1 M Na2HPO4, CaCl2 or MgCl2; absorbance 600 nm
Procedure: Figure 3 The absorbance of TPF and the analogs prepared in (a) a series of culture media, including PBS, RPMI1640, RPMI1640 with 10% FBS, TSB, and MHB; 0.25, 0.5, and 1 M of (b) Na2HPO4, (c) CaCl2, and (d) MgCl2 solutions. Peptide solutions were prepared from 1 mg/mL, and the wavelength was set as 600 nm. The error bar represents the standard deviation (SD) with three replicates.
The method was followed the previous study with modifications. The purified peptides were prepared at 10 mg/mL in water and subsequently diluted with different solutions, including PBS, RPMI1640, RPMI1640 with 10% FBS, TSB, MHB, Na2HPO4 (0.25, 0.5, and 1 M), CaCl2 (0.25, 0.5, and 1 M), and MgCl2 (0.25, 0.5, and 1 M), in a 96-well plate to achieve the final concentration of 1 mg/mL. The turbidity of each well was detected using the absorbance at 600 nm by a plate reader. The peptides dissolved in water were applied as negative control.

LPLIAGLFGKIF-NH2 [des-Phe1 TPF]
MBC [1]: > 128 µM | MIC [1]: > 128 µM | MBC [2]: 16 µM | MIC [2]: 16 µM | MBC [3]: 128 µM | MIC [3]: 128 µM | MBC [4]: 128 µM | MIC [4]: 64 µM | MBC [5]: 32 µM | MIC [5]: 32 µM | MBC [6]: 32 µM | MIC [6]: 32 µM | order of retention time (RP-HPLC, used as estimate of overall hydrophobicity) [7]: TPF> des-Phe1 TPF> W-des-Phe1 TPF> dW-des-Phe1 TPF | Helix Content % DPPC ([8]; 50 μM peptide in 3 mM DPPC SUVs (erythrocyte membrane mimic)): 16.4% | Helix Content % DPPG/DPPE ([8]; 50 μM peptide in 3 mM DPPG/DPPE (88:12) SUVs (bacterial membrane mimic)): 26.7% | Helix Content % 50% TFE ([8]; 50 μM peptide in 50% TFE/10 mM NH4AC, three scans averaged): 37.7% | aggregation (salting-out) in salt solutions [9]: low degree of capability for aggregation
